# Earlier results as cited in publication PMC12019481 (Nature Communications, 2025).
# Experiments:
# [1] = system: GAT3
# [2] = biological target: GAT1 (Homo sapiens, UniProt P30531)
# GAT1, sequence (P30531 whole entry): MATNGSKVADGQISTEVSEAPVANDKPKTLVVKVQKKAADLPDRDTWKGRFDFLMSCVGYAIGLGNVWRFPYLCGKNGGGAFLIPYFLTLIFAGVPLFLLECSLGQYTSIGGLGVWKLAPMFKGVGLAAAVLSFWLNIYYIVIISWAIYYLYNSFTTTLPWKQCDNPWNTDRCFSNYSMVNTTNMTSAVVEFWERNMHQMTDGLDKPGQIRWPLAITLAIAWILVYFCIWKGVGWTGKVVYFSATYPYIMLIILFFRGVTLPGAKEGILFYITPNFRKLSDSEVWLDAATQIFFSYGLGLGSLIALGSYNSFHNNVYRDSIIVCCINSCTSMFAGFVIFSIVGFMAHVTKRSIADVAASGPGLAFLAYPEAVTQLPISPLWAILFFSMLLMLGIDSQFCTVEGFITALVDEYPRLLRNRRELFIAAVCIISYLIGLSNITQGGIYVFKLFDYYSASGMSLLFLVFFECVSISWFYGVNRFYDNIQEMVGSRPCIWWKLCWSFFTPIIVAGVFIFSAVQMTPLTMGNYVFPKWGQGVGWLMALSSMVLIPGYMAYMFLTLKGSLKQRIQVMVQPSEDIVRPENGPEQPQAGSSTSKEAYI
selectivity for GAT1 [2],Compound,selectivity for GAT3 [1]
–,5-(2-Thienyl)Isatin,~ 167 fold
"10,000–20,000 fold",Cc1ccsc1C(=CCCN1CCC[C@@H](C(=O)O)C1)c1sccc1C [tiagabine],–
